# Columns and labels:
# human monocytes = experiment: C5a-stimulated oxidative burst (ROS release) in human monocytes; type: cell-based; conditions: C5a in presence or absence of Marimastat, ROS by FACS (DHR)
# Description: (§1) FIG. 5. (A) TACE-mediated cleavage of CD62L on the cell surface of freshly isolated human neutrophils (representative of 2 experiments). Surface expression of CD62L was assessed by flow cytometry following stimulation with 1 μg/mL of C5a or 25 ng/mL PMA for 20 min in the presence or absence of Marimastat (MM). (B) Quantification of total sheep red blood cells phagocytosed by wild type or Tace−/− bone marrow macrophages. Opsonized sheep red blood cells were stained with CFSE and total fluorescence intensity (TFI) was measured by flow cytometry, n=3, mean+/−SEM; * indicates p>0.05. (C) Release of reactive oxygen species by human monocytes when stimulated with C5a in the presence or absence of Marimastat. ROS was quantified by FACS by measuring the mean intensity of the ROS-reactive dye DHR. […] The Fc domains of pathogenic IgG initiate tissue damage by binding FcγR on effector cells and by activating complement, and FcγRs are critical for the pathogenesis of inflammatory arthritis in the K/B×N serum model (Ji et al., 2002a).
# macrophages = experiment: Phagocytosis of IgG-opsonized red blood cells by macrophages; type: cell-based; conditions: inhibition of TACE with MM
# Description: as §1, with “(B) Quantification of total sheep red blood cells phagocytosed by wild type or Tace−/− bone marrow macrophages.” left out
# iRhom2 = iRhom2 expression in ex vivo cultures of RA synovial macrophages; type: cell-based, human; conditions: RA synovial macrophages incubated overnight ± etanercept, n=8
# Description: FIG. 2. Production of TNFα and other pro-inflammatory molecules is enhanced by TNFα shedding. (A) Quantification of mRNA levels of the indicated genes by qPCR following 30 min pre-treatment with 10 μg/ml etanercept and stimulation with C5a (representative of 3 experiments). (B) qPCR of iRhom2 mRNA in human monocytes treated for the indicated time periods with hTNFα (representative of 4 experiments). (C) Relative iRhom2 expression in RA synovial macrophages compared to macrophages from normal control patients, n=7 for control, and n=8 for RA patients (Nonparametric Mann-Whitney U test) (Gordon et al., 2012). (D) iRhom2 expression in synovial macrophages from RA patients following incubation overnight±etanercept, shown as percent of expression in freshly isolated cells, n=8. […] (F) Decreased TNFα release from C5a, IC and IC+C5a-stimulated cells treated with iR2 siRNA or TACE siRNA compared to untreated controls (representative of 3 independent experiments, mean±s.d. of samples stimulated in duplicates). *: p<0.05.
# This, in turn, would also reduce the production of TNFα-dependent cytokines and of iRhom2, a crucial positive regulator of TACE (Adrain et al., 2012; McIlwain et al., 2012; Siggs et al., 2012).
Compound,C5a-stimulated oxidative burst (human monocytes),opsonization (internalization of IgG-opsonized red blood cells) (macrophages),iRhom2 expression (iRhom2)
"CNC(=O)[C@@H](NC(=O)[C@H](CC(C)C)[C@H](O)C(=O)NO)C(C)(C)C [MM, Marimastat]",did not alter,did not alter,
etanercept,,,substantially reduced
